Experimental data taken from patent publication US4880804A (E. I. Du Pont De Nemours and Company, priority 1988, dated 1989).

Assays:
renal hypertensive rats = test: Antihypertensive effects in renal hypertensive rats; format: in vivo, rat; conditions: class symbol
Procedure: This procedure increases blood pressure by increasing renin production with consequent elevation of AII levels. Compounds are administered orally and/or intravenously via a cannula in the jugular vein. Arterial blood pressure is continuously measured directly through a cartoid artery cannula and recorded using a pressure transducer and a polygraph. Blood pressure levels after treatment are compared to pretreatment levels to determine the antihypertensive effects of the compounds (See Table 4).

AII receptor = test: Angiotensin II receptor binding, displacement of 3H-AII; conditions: read-out: Angiotensin II Receptor Binding IC50; rat adrenal cortical microsomes, 2 nM 3H-AII, 1 hour, room temperature
Procedure: The reaction mixture contained rat adrenal cortical microsomes (source of AII receptor) in Tris buffer and 2 nM of ^3 H-AII with or without potential AII antagonist. This mixture was incubated for 1 hour at room temperature and the reaction was subsequently terminated by rapid filtration and rinsing through glass microfibre filter. Receptor-bound ^3 H-AII trapped in filter was quantitated by scintillation counting.

AII [1] = conditions: cited from earlier work
AII [2] = conditions: cited from earlier work; remark: listed apart in the source

IC50 (AII receptor) [µM]	Structure (SMILES)	Antihypertensive Effects in Renal Hypertensive Rats, Intravenous Activity (renal hypertensive rats)	further results
6.3	COCc1nc2ccc(CO)cc2n1Cc1ccc(-c2ccccc2C(=O)O)cc1 [Example 34]	+ (Significant decrease in blood pressure at 10 mg/kg or less.)	–
5	CCCCc1nc2ccc(Cl)cc2n1Cc1ccc(-c2ccccc2C(=O)O)cc1 [Example 33, 2-Butyl-1-[(2'-carboxybiphenyl-4-yl)methyl]-6-chlorobenzimidazole]	+ (Significant decrease in blood pressure at 10 mg/kg or less.)	Antihypertensive Effects in Renal Hypertensive Rats, Oral Activity (renal hypertensive rats): + (Significant decrease in blood pressure at 100 mg/kg or less.)
0.37	CCCCc1nc2cc(CO)ccc2n1Cc1ccc(-c2ccccc2C(=O)O)cc1 [Example 28, 2-Butyl-1-[(2'-carboxybiphenyl-4-yl)methyl]-5-hydroxymethylbenzimidazole]	+ (Significant decrease in blood pressure at 10 mg/kg or less.)	–
1.4	CCCCc1nc2ccc(C=O)cc2n1Cc1ccc(-c2ccccc2C(=O)O)cc1 [Example 31]	+ (Significant decrease in blood pressure at 10 mg/kg or less.)	–
11	CCCCc1nc2cc(Cl)ccc2n1Cc1ccc(-c2ccccc2C(=O)O)cc1 [Example 38]	+ (Significant decrease in blood pressure at 10 mg/kg or less.)	–
5.7	CCCCc1nc2ccc(C(=O)O)cc2n1Cc1ccc(-c2ccccc2C(=O)O)cc1 [Example 37]	+ (Significant decrease in blood pressure at 10 mg/kg or less.)	–
0.22	CCCCc1nc2ccc(CO)cc2n1Cc1ccc(-c2ccccc2C(=O)O)cc1 [Example 27, 2-Butyl-1-[(2'-Carboxybiphenyl-4-yl)methyl]-6-hydroxymethylbenzimidazole]	+ (Significant decrease in blood pressure at 10 mg/kg or less.)	Antihypertensive Effects in Renal Hypertensive Rats, Oral Activity (renal hypertensive rats): + (Significant decrease in blood pressure at 100 mg/kg or less.)
0.5	CCC=Cc1nc2ccc(CO)cc2n1Cc1ccc(-c2ccccc2C(=O)O)cc1 [Example 32, 2-(1-Butenyl)-6-hydroxymethyl-1-[(2'-carboxybiphenyl-4-yl)methyl]benzimidazole]	+ (Significant decrease in blood pressure at 10 mg/kg or less.)	Antihypertensive Effects in Renal Hypertensive Rats, Oral Activity (renal hypertensive rats): + (Significant decrease in blood pressure at 100 mg/kg or less.)
0.92	CCCCc1nc2ccc(OC)cc2n1Cc1ccc(-c2ccccc2C(=O)O)cc1 [Example 29, 1-[(2'-Carboxybiphenyl-4-yl)methyl]-2-butyl-6-methoxybenzimidazole]	+ (Significant decrease in blood pressure at 10 mg/kg or less.)	–
1	CCCCc1nc2cc(OC)ccc2n1Cc1ccc(-c2ccccc2C(=O)O)cc1 [Example 30]	+ (Significant decrease in blood pressure at 10 mg/kg or less.)	–

Further lines, the compound ahead of its results:

Structure (SMILES)	IC50 (AII receptor) [µM]	Antihypertensive Effects in Renal Hypertensive Rats, Intravenous Activity (renal hypertensive rats)	further results
CCCC=Cc1nc2ccccc2n1Cc1ccc(NC(=O)c2ccccc2C(=O)O)cc1 [Example 3, 1-[4-(2-Carboxybenzamido)benzyl]-2-(1-pentenyl)benzimidazole]	4.4	–	–
CCOC(=O)CCc1nc2ccccc2n1Cc1ccc(NC(=O)c2ccccc2C(=O)O)cc1 [Example 2, 3-[1-(4-(2-Carboxybenzamido)benzyl)benzimidazole-2-yl]-2-propanoic acid, ethyl ester]	2.1	–	–
CCOC(=O)C(Cc1nc2ccccc2n1Cc1ccc(NC(=O)c2ccccc2C(=O)O)cc1)C(=O)OCC [Example 1, 3-[1-(4-(2-Carboxybenzamido)benzyl)benzimidazol-2-yl]-2-(carboethoxy)propanoic acid, ethyl ester]	8.3	–	–
CCOC(=O)C=Cc1nc2ccccc2n1Cc1ccc(NC(=O)c2ccccc2C(=O)O)cc1 [Example 4, 3-[1-(4-(2-Carboxybenzamido)benzyl)benzimidazol-2-yl]propenoic acid, ethyl ester]	15	–	–
CNCC(=O)N[C@@H](CCCN=C(N)N)C(=O)N[C@H](C(=O)N[C@@H](Cc1ccc(O)cc1)C(=O)N[C@H](C(=O)N[C@@H](Cc1cnc[nH]1)C(=O)N1CCC[C@H]1C(=O)N[C@@H](C)C(=O)O)C(C)C)C(C)C [Saralasin]	–	–	Lowering of arterial pressure (AII [1]; elevated pressure dependent on circulating AII): lower arterial pressure in mammals and man when the (elevated) pressure is dependent on circulating AII; Oral effectiveness (AII [1]; oral): oral doses being ineffective; Duration of pharmacological effects (AII [1]; parenteral administration): relatively short-lasting; Pressor effects (agonistic character) (AII [1]; pressure not sustained by AII): generally elicits pressor effects when the pressure is not sustained by AII; Antagonism of the actions of AII (AII [2]; in words): one of the most potent competitive antagonists of the actions of AII; Block of the effects of AII on blood pressure (AII [2]; pithed rats): blocks the effects of AII on the blood pressure of pithed rats
CCCCc1nc2cc(C(=O)O)ccc2n1Cc1ccc(-c2ccccc2C(=O)O)cc1 [Example 36]	2.5	+ (Significant decrease in blood pressure at 10 mg/kg or less.)	–
CCOC(=O)CCc1nc2ccccc2n1Cc1ccc(NC(=O)c2ccccc2NS(=O)(=O)C(F)(F)F)cc1 [Example 6]	2.8	–	–
COCc1nc2cc(CO)ccc2n1Cc1ccc(-c2ccccc2C(=O)O)cc1 [Example 35]	21	+ (Significant decrease in blood pressure at 10 mg/kg or less.)	–
CCOC(=O)C=Cc1nc2ccccc2n1Cc1ccc(NC(=O)c2ccccc2NS(=O)(=O)C(F)(F)F)cc1 [Example 5]	29	–	–
